biological target: PIK3CG (human) (UniProt P48736); experiment: Inhibition of PIK3CG Kinase Activity
Sequence (P48736 whole entry, looked up): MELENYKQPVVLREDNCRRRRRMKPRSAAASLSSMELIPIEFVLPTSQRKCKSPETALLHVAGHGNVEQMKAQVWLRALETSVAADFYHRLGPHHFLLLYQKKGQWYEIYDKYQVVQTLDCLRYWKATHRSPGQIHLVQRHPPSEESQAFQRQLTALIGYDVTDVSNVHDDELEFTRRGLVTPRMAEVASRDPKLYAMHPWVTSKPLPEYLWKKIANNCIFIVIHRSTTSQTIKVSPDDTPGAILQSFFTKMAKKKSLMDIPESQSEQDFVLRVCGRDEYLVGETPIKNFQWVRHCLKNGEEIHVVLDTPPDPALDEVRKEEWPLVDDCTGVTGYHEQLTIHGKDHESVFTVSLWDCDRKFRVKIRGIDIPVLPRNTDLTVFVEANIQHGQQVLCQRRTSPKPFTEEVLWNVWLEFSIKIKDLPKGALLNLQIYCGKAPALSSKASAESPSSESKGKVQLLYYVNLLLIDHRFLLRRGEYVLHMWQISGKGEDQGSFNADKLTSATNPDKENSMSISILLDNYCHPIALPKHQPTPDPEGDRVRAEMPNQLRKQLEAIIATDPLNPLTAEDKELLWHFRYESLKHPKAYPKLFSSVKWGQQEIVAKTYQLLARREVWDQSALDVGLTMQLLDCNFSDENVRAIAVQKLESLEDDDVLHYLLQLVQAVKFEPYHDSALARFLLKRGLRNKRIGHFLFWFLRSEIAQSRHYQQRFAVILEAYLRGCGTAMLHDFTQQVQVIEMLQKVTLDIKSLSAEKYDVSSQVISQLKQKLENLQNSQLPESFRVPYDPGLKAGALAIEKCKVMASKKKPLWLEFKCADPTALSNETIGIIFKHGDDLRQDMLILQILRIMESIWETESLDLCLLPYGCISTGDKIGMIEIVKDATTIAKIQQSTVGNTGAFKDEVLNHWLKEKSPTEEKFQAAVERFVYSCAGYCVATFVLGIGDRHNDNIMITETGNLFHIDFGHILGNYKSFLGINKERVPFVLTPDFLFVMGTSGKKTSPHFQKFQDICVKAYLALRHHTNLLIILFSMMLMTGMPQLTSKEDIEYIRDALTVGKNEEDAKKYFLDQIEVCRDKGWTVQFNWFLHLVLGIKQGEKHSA

Compound	Ki
COc1cncc(-c2cc(C)c3c(n2)C(C)(C)N(c2ccn(C[C@H](C)O)n2)C3=O)c1	< 0.1 µM
Cc1cc(-c2cncc(C(=O)N(C)C(C)C)c2)nc2c1C(=O)N(c1cnn(CC(F)(F)F)c1)C2(C)C	< 0.1 µM
COc1cc(OC)cc(-c2cc(C)c3c(n2)CN(c2cnn(CC#N)c2)C3=O)c1	< 0.1 µM
Cc1cc(-c2cncc(C(=O)NCC(F)(F)F)c2)nc2c1C(=O)N(c1cnn(CC(F)(F)F)c1)C2(C)C	< 0.1 µM
COc1cc(-c2cc(C)c3c(n2)CN(c2ccc(C(C)(C)O)nc2)C3=O)cnc1OC	< 0.1 µM
CCn1ccc(N2C(=O)c3c(C)cc(-c4cncc(OC)c4)nc3C2(C)C)n1	0.1 to 0.49 µM
COc1cc(-c2ccc3c(n2)CN(c2ccn(CC4CCCCO4)n2)C3=O)cnc1OC (stereo not given)	< 0.1 µM
Cc1cc(-c2cncc(OC(F)F)c2)nc2c1C(=O)N(c1cnn(C[C@H](C)O)c1)C2	< 0.1 µM
COc1ncc(-c2cc(C)c3c(n2)CN(c2cnn(CC#N)c2)C3=O)cn1	< 0.1 µM
COc1ccc(-c2ccc3c(n2)CN(c2cnn(CC#N)c2)C3=O)c(OC)n1	< 0.1 µM
COc1cc(-c2cc(C)c3c(n2)CN(c2ccn([C@@H]4CCOC4)n2)C3=O)cnc1F	< 0.1 µM
CCn1ccc(N2C(=O)c3c(C)cc(-c4cncc(OC)c4)nc3C2C)n1 (stereo not given)	< 0.1 µM
COCCOc1ccc(N2Cc3nc(-c4cnc(OC)c(OC)c4)ccc3C2=O)cn1	< 0.1 µM
COc1ncc(-c2cc(C)c3c(n2)CN(c2cn[nH]c2)C3=O)cc1OCC1CC1	< 0.1 µM
Cc1cc(-c2cncc(C(=O)O)c2)nc2c1C(=O)N(c1cnn(CC(F)(F)F)c1)C2	< 0.1 µM
CCn1ccc(N2C(=O)c3c(C)cc(-c4cncc(OC(F)F)c4)nc3C2C)n1 (stereo not given)	< 0.1 µM
COc1cc(-c2ccc3c(c2)CN(c2cncc(C)c2)C3=O)cnc1OC	< 0.1 µM
CC(C)(C#N)n1cc(N2Cc3nc(-c4cncc(OC(F)F)c4)ccc3C2=O)cn1	0.1 to 0.49 µM
COc1cc(-c2cc(C)c3c(n2)CN(c2cnn(C)c2)C3=O)cnc1OC	< 0.1 µM
COc1cc(-c2cc(C)c3c(n2)CN(c2cn(C)cn2)C3=O)cnc1OC	< 0.1 µM
CCn1ccc(N2C(=O)c3c(C)cc(-c4cncc(OC)c4)nc3[C@H]2C)n1	< 0.1 µM

Compound	Ki
COc1cc(-c2ccc3c(c2)CN(c2cccc(CC#N)c2)C3=O)cnc1OC	< 0.1 µM
Cc1cc(-c2cncc(NC(=O)C(C)C)c2)nc2c1C(=O)N(c1cnn(CC(F)(F)F)c1)C2(C)C	0.1 to 0.49 µM
COCc1cc(N2Cc3nc(-c4cnc(OC)c(OC)c4)ccc3C2=O)n[nH]1	< 0.1 µM
COc1cc(N2Cc3nc(-c4cnc(OC)c(OC)c4)cc(C)c3C2=O)cnc1CO	< 0.1 µM
COc1cc(-c2ccc3c(c2)CN(c2ccn(CC#N)n2)C3=O)cnc1OC	< 0.1 µM
COc1cncc(-c2cc(C)c3c(n2)[C@@H](C)N(c2ccn(CC(C)(C)O)n2)C3=O)c1	< 0.1 µM
COc1cc(-c2cc(C)c3c(n2)CN(c2ccc(C(C)C)nc2)C3=O)cnc1OC	< 0.1 µM
COc1cncc(-c2cc(C)c3c(n2)CN(c2cnn(C[C@H](C)F)c2)C3=O)c1	< 0.1 µM
COc1cc(-c2ccc3c(c2)CN(c2cc(C)n(C)n2)C3=O)cnc1OC	0.1 to 0.49 µM
COc1cc(-c2ccc3c(n2)CN(c2cncc(CN4CCOCC4)c2)C3=O)cnc1OC	0.1 to 0.49 µM
COc1cncc(-c2cc(C)c3c(n2)C(C)(C)N(c2cnn([C@@H]4CCOC4)c2)C3=O)c1	< 0.1 µM
COc1cc(-c2cc(C)c3c(n2)CN(c2ccnc(F)c2)C3=O)cnc1OC	< 0.1 µM
CCn1cc(N2Cc3nc(-c4ccc(OC)c(OC)c4)cc(C)c3C2=O)cn1	< 0.1 µM
COc1cncc(-c2cc(C)c3c(n2)[C@]2(CCOC2)N(c2cnn(CC(F)(F)F)c2)C3=O)c1	< 0.1 µM
COc1cc(-c2cc(C)c3c(n2)CN(c2cncc(F)c2)C3=O)cnc1OC	< 0.1 µM
Cc1cc(-c2cncc(OCC(F)(F)F)c2)nc2c1C(=O)N(c1cn(CC(F)(F)F)cn1)C2	< 0.1 µM
COc1cc(-c2cc(C)c3c(n2)C(O)N(c2nc(C)cs2)C3=O)cnc1OC (stereo not given)	< 0.1 µM
COc1cc(-c2cc(C)c3c(n2)CN(c2ccnc(OCC(F)F)c2)C3=O)cnc1OC	< 0.1 µM
CCCNC(=O)c1cncc(-c2cc(C)c3c(n2)C(C)(C)N(c2cnn(CC(F)(F)F)c2)C3=O)c1	< 0.1 µM
CCOc1ncc(-c2cc(C)c3c(n2)CN(c2cncc(CCC#N)c2)C3=O)cc1OC	< 0.1 µM
CCn1cc(N2Cc3nc(-c4cncc(OCC(F)(F)F)c4)cc(C)c3C2=O)cn1	< 0.1 µM

Results, then the compound that gave them:

Ki	Compound
< 0.1 µM	COc1cc(-c2cc(C)c3c(n2)[C@H](OC)N(c2cnn(CC(F)(F)F)c2)C3=O)cnc1OC
< 0.1 µM	COc1cc(-c2ccc3c(c2)CN(c2cnn(CC(F)(F)F)c2)C3=O)cnc1OC
< 0.1 µM	COc1cc(-c2ccc3c(n2)[C@H](C)N(c2ccn(C[C@@H](C)O)n2)C3=O)cnc1OC
< 0.1 µM	COCCNC(=O)c1cc(-c2cc(C)c3c(n2)C(C)(C)N(c2cnn(CC(F)(F)F)c2)C3=O)cnc1OC
< 0.1 µM	CCOC1c2nc(-c3cnc(OC)c(OC)c3)cc(C)c2C(=O)N1c1cnn(CC(F)(F)F)c1 (stereo not given)
< 0.1 µM	CCn1cc(N2Cc3cc(-c4cnc(OC)c(OC)c4)ccc3C2=O)cn1
< 0.1 µM	COc1cc(-c2cc(C)c3c(n2)C(CC2CCOC2)N(c2cnn(CC(F)(F)F)c2)C3=O)cnc1OC (stereo not given)
< 0.1 µM	COc1cc(OC)cc(-c2cc(C)c3c(n2)C(C)N(c2cnn(CC(F)(F)F)c2)C3=O)c1 (stereo not given)
< 0.1 µM	COc1ncc(-c2cc(C)c3c(c2)C(C)N(c2cnn(CC(F)(F)F)c2)C3=O)cc1F (stereo not given)
< 0.1 µM	COc1cc(-c2ccc3c(n2)CN(c2cnn(C)n2)C3=O)cnc1OC
< 0.1 µM	CCOc1ncc(-c2ccc3c(n2)C(C)N(c2cnn(CC(F)(F)F)c2)C3=O)cc1OC (stereo not given)
< 0.1 µM	CCn1cc(N2Cc3nc(-c4cnc(OC)c(OC)c4)ccc3C2=O)ccc1=O
< 0.1 µM	COc1ccc(-c2cc(C)c3c(c2)C(C)N(c2cnn(CC(F)(F)F)c2)C3=O)cc1OC (stereo not given)
< 0.1 µM	COc1cncc(-c2cc(C)c3c(n2)C2(CC2)N(c2cnn(CC(F)(F)F)c2)C3=O)c1
< 0.1 µM	Cc1cc(-c2cnc(C)c(OCC(F)(F)F)c2)nc2c1C(=O)N(c1cnn(CC(F)(F)F)c1)C2(C)C
< 0.1 µM	COc1cc(-c2ccc3c(n2)[C@@H](C)N(c2ccn(C[C@@H](C)O)n2)C3=O)cnc1OC
< 0.1 µM	C#CCNC(=O)c1cncc(-c2cc(C)c3c(n2)C(C)N(c2cnn(CC(F)(F)F)c2)C3=O)c1 (stereo not given)
< 0.1 µM	COc1cncc(-c2cc(C)c3c(c2)C(C)N(c2cnn(CC(F)(F)F)c2)C3=O)c1 (stereo not given)
< 0.1 µM	Cc1cc(-c2cncc(OCC(F)F)c2)nc2c1C(=O)N(c1cnn(CC(F)(F)F)c1)C2
< 0.1 µM	COc1cc(-c2ccc3c(n2)CN(c2cnn(Cc4ccc(Cl)nc4)c2)C3=O)cnc1OC
0.1 to 0.49 µM	CCCCOCCOc1cncc(-c2cc(C)c3c(n2)CN(c2cnn(CC(F)(F)F)c2)C3=O)c1
0.1 to 0.49 µM	COc1cc(-c2ccc3c(n2)C(C)N(c2cnn(CC(C)(C)O)c2)C3=O)cnc1OC (stereo not given)
< 0.1 µM	COc1cc(-c2cc(C3CC3)c3c(n2)CN(c2cnn(CC(F)(F)F)c2)C3=O)cnc1OC
< 0.1 µM	CCOc1cncc(-c2cc(C)c3c(n2)[C@@H](C)N(c2cnn(CC(F)(F)F)c2)C3=O)c1
< 0.1 µM	CCOc1ncc(-c2cc(C)c3c(n2)CN(c2cn(CC(F)(F)F)cn2)C3=O)cc1OC
< 0.1 µM	COc1cc(-c2ccc3c(n2)CN(c2cnn(CCCO)c2)C3=O)cnc1OC
< 0.1 µM	COc1cc(-c2cc(C)c3c(n2)CN(c2cnn(CC(F)(F)F)c2)C3=O)ccn1

Ki	Compound
< 0.1 µM	COc1cc(-c2ccc3c(n2)CN(c2cnn(Cc4cn(C)cn4)c2)C3=O)cnc1OC
< 0.1 µM	COc1cc(-c2cc(C)c3c(n2)C(OC(C)=O)N(c2cnn(CC(F)(F)F)c2)C3=O)cnc1OC (stereo not given)
< 0.1 µM	COc1cc(-c2ccc3c(n2)[C@@H](C)N(c2ccnc(CC#N)c2)C3=O)cnc1OC
< 0.1 µM	CCC1c2nc(-c3cncc(OC(F)F)c3)cc(C)c2C(=O)N1c1cnn(CC(F)(F)F)c1 (stereo not given)
< 0.1 µM	CO[C@@H]1c2nc(-c3cncc(OCC(F)F)c3)cc(C)c2C(=O)N1c1cnn(CC(F)(F)F)c1
0.1 to 0.49 µM	CCOC(=O)C(F)(F)c1ccc(N2Cc3nc(-c4cnc(OC)c(OC)c4)ccc3C2=O)cn1
< 0.1 µM	CCn1ccnc1Cn1cc(N2Cc3nc(-c4cnc(OC)c(OC)c4)ccc3C2=O)cn1
< 0.1 µM	CCn1cc(N2C(=O)c3ccc(-c4cnc(OC)c(OC)c4)nc3C2C)cn1 (stereo not given)
< 0.1 µM	COc1cc(-c2ccc3c(n2)[C@H](OC)N(c2cnn(CC(F)(F)F)c2)C3=O)cnc1OC
0.1 to 0.49 µM	COc1cc(-c2ccc3c(n2)CN(c2cnn(CC4CCCN4)c2)C3=O)cnc1OC (stereo not given)
< 0.1 µM	CCOc1ncc(-c2cc(C)c3c(n2)[C@]2(CCCO2)N(c2cnn(CC(F)(F)F)c2)C3=O)cc1OC
< 0.1 µM	CCn1cc(N2C(=O)c3c(C)cc(-c4cncc(OC(F)F)c4)nc3[C@H]2C)cn1
< 0.1 µM	CCOc1cc(-c2cc(C)c3c(c2)CN(c2cnn(CC(F)(F)F)c2)C3=O)cnc1OCC
< 0.1 µM	COc1ncc(-c2cc(C)c3c(n2)CN(c2cnn(CC(F)(F)F)c2)C3=O)cc1O
< 0.1 µM	COc1cc(-c2cc(OC)c3c(n2)CN(c2cnn(CC(F)(F)F)c2)C3=O)cnc1OC
0.1 to 0.49 µM	Cc1cc(-c2cncc(C(=O)N(C)C(C)CO)c2)nc2c1C(=O)N(c1cnn(CC(F)(F)F)c1)C2 (stereo not given)
< 0.1 µM	CC1c2nc(-c3cccc(OC(F)(F)F)c3)ccc2C(=O)N1c1cnn(CC(F)(F)F)c1 (stereo not given)
< 0.1 µM	COc1cc(-c2cc(C)c3c(n2)[C@]2(CCCO2)N(c2cnn(CC(F)(F)F)c2)C3=O)cnc1OC
< 0.1 µM	COc1ccc(-c2cc(C)c3c(c2)CN(c2cnn(CC(F)(F)F)c2)C3=O)nc1OC
< 0.1 µM	COc1cc(-c2ccc3c(n2)C(Cc2ccccc2)N(c2cnn(CC(F)(F)F)c2)C3=O)cnc1OC (stereo not given)
< 0.1 µM	COc1cc(-c2ccc3c(n2)CN(c2cnn([C@@H](C)C#N)c2)C3=O)cnc1OC
< 0.1 µM	Cc1cc(-c2cncc(OCC(F)F)c2)nc2c1C(=O)N(c1cnn(CC(F)(F)F)c1)C2(C)C
< 0.1 µM	COc1ccc(-c2cc(C)c3c(n2)CN(c2cnn(CC(F)(F)F)c2)C3=O)cn1
< 0.1 µM	CCOCCCOc1cc(-c2cc(C)c3c(n2)CN(c2cnn(CC(F)(F)F)c2)C3=O)cnc1OC
< 0.1 µM	COc1cc(-c2cc(C)c3c(n2)[C@@H](OC)N(c2cnn(CC(F)(F)F)c2)C3=O)cnc1OC
< 0.1 µM	COc1cc(-c2ccc3c(n2)CN(c2cnn(C(C)C)c2)C3=O)cnc1OC

Reference: the Kinase Knowledgebase extract (Sharma et al. 2016)
